Source: PubChem BioAssay AID248 (DTP/NCI, 2004)
Where “and” joins values, the source holds several entries; their conditions need not be identical. Equal entries are not always repeated. Toxic doses and inconclusive results are not listed. No stated cut-off is given here; in the data, active means T/C of 150% or more; inactive means T/C below 125%. Square brackets hold non-standard residues; d marks the D form. Peptide text beside a SMILES is read from it. * marks the point of attachment. ξ: configuration not given here. Cbz = O=C(OCc1ccccc1)*; ξT = CC(O)C(N)C(=O)O; OBn = c1ccc(CO*)cc1

Tested on: L1210 leukemia ip in BDF1 mice, survival T/C
Assay: NCI In Vivo Anticancer Drug Screen. Data for tumor model L1210 Leukemia (intraperitoneal) in B6D2F1 (BDF1) mice
Details: endpoint: mean survival time, higher = longer survival
Outline: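 Tumor cells were implanted, animals were treated, and survival was followed. The result divides the treated measurement by the vehicle-control measurement.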

[1] = dose: 100.0 mg/kg/injection, schedule: Q01DX001 (ip), vehicle: saline
[2] = dose: 200.0 mg/kg/injection, schedule: Q01DX001 (ip), vehicle: saline
[3] = dose: 400.0 mg/kg/injection, schedule: Q01DX001 (ip), vehicle: saline
[4] = dose: 100.0 mg/kg/injection, schedule: Q04DX002 (ip), vehicle: Klucel (hydroxypropylcellulose) (HPC)
[5] = dose: 200.0 mg/kg/injection, schedule: Q04DX002 (ip), vehicle: Klucel (hydroxypropylcellulose) (HPC)
[6] = dose: 400.0 mg/kg/injection, schedule: Q04DX002 (ip), vehicle: Klucel (hydroxypropylcellulose) (HPC)
[7] = dose: 100.0 mg/kg/injection, schedule: Q04DX003 (ip), vehicle: saline with Tween-80
[8] = dose: 200.0 mg/kg/injection, schedule: Q04DX003 (ip), vehicle: saline with Tween-80
[9] = dose: 400.0 mg/kg/injection, schedule: Q04DX003 (ip), vehicle: saline with Tween-80
[10] = dose: 100.0 mg/kg/injection, schedule: Q04DX003 (ip), vehicle: saline
[11] = dose: 200.0 mg/kg/injection, schedule: Q04DX003 (ip), vehicle: saline
[12] = dose: 100.0 mg/kg/injection, schedule: Q01DX009 (ip), vehicle: Klucel (hydroxypropylcellulose) (HPC)
[13] = dose: 100.0 mg/kg/injection, schedule: Q04DX003 (ip), vehicle: Klucel (hydroxypropylcellulose) (HPC)
[14] = dose: 200.0 mg/kg/injection, schedule: Q01DX009 (ip), vehicle: Klucel (hydroxypropylcellulose) (HPC)
[15] = dose: 200.0 mg/kg/injection, schedule: Q04DX003 (ip), vehicle: Klucel (hydroxypropylcellulose) (HPC)
[16] = dose: 400.0 mg/kg/injection, schedule: Q01DX009 (ip), vehicle: Klucel (hydroxypropylcellulose) (HPC)
[17] = dose: 400.0 mg/kg/injection, schedule: Q04DX003 (ip), vehicle: Klucel (hydroxypropylcellulose) (HPC)
[18] = dose: 50.0 mg/kg/injection, schedule: Q01DX009 (ip), vehicle: saline with Tween-80
[19] = dose: 100.0 mg/kg/injection, schedule: Q01DX009 (ip), vehicle: saline with Tween-80
[20] = dose: 200.0 mg/kg/injection, schedule: Q01DX009 (ip), vehicle: saline with Tween-80
[21] = dose: 400.0 mg/kg/injection, schedule: Q01DX009 (ip), vehicle: saline with Tween-80

Measured: T/C

O=C1Nc2ccccc2C1=Nc1ccccc1-c1ccccc1
inactive: [1] 91 % of control | [2] 92 % of control | [3] 96 % of control

CCCCCCNC(=O)c1cccc(C(=O)NCCCCCC)c1
inactive: [4] 88 % of control | [5] 94 % of control | [6] 98 % of control

CCCCCCCCCCCCCc1nc(N)nc(NCCCC)n1
inactive: [4] 92 % of control | [5] 89 % of control | [6] 100 % of control

CC(O)C(NC(=O)CNC(=O)OCc1ccccc1)C(=O)OCc1ccccc1 (stereo not drawn) (Cbz-Gly-[ξT]-OBn)
inactive: [7] 97 % of control | [8] 105 % of control | [9] 97 % of control

CN(Cc1cnc2cc(N)nc(N)c2n1)c1ccc(C(=O)O)cc1
inactive: dose: 25.0 mg/kg/injection, schedule: Q01DX009 (ip), vehicle: other 108 % of control | dose: 50.0 mg/kg/injection, schedule: Q01DX009 (ip), vehicle: other 106 % of control | dose: 75.0 mg/kg/injection, schedule: Q01DX001 (ip), vehicle: other 98 % of control | dose: 100.0 mg/kg/injection, schedule: Q01DX009 (ip), vehicle: other 101 % of control | dose: 150.0 mg/kg/injection, schedule: Q01DX001 (ip), vehicle: other 102 % of control | dose: 300.0 mg/kg/injection, schedule: Q01DX001 (ip), vehicle: other 105 % of control

CCOC(=O)c1nc(NC)sc1N
inactive: dose: 12.5 mg/kg/injection, schedule: Q01DX009 (ip), vehicle: saline 98 % of control | dose: 25.0 mg/kg/injection, schedule: Q01DX009 (ip), vehicle: saline 104 % of control | dose: 50.0 mg/kg/injection, schedule: Q01DX009 (ip), vehicle: saline 97 % of control and 98 % of control | [10] 102 % of control | [11] 100 % of control

N#Cc1ccc2c(c1)Nc1ccccc1S2
inactive: [12] 101 % of control | [13] 103 % of control | [14] 99 % of control | [15] 92 % of control | [16] 89 % of control | [17] 105 % of control

COC1OC(COC(c2ccccc2)(c2ccccc2)c2ccccc2)C(OS(=O)(=O)c2ccc(C)cc2)C(OC(=O)c2ccccc2)C1OC(=O)c1ccccc1 (stereo not drawn)
inactive: dose: 100.0 mg/kg/injection, schedule: Q04DX002 (ip), vehicle: saline with Tween-80 114 % of control | dose: 200.0 mg/kg/injection, schedule: Q04DX002 (ip), vehicle: saline with Tween-80 97 % of control | dose: 400.0 mg/kg/injection, schedule: Q04DX002 (ip), vehicle: saline with Tween-80 90 % of control

O=C1C(=O)c2ccccc2C(O)=C1CC=C1CCCCC1
inactive: dose: 100.0 mg/kg/injection, schedule: Q01DX001 (ip), vehicle: water 100 % of control | dose: 100.0 mg/kg/injection, schedule: Q01DX009 (ip), vehicle: water 103 % of control | dose: 200.0 mg/kg/injection, schedule: Q01DX009 (ip), vehicle: water 98 % of control | dose: 400.0 mg/kg/injection, schedule: Q01DX001 (ip), vehicle: water 108 % of control

Oc1ccc(Cl)c2c1CCC2
inactive: [18] 110 % of control | [19] 102 % of control | [7] 101 % of control | [20] 104 % of control | [8] 101 % of control

COc1ccc(COC(=O)Nc2ccc(Br)cc2)c(OC)c1
inactive: [12] 98 % of control | [14] 104 % of control | [16] 101 % of control

Cc1cc(C)c(C(=O)C2CC=CCC2c2c(C)cc(C)cc2C)c(C)c1 (stereo not drawn)
inactive: [13] 101 % of control | [15] 94 % of control | [17] 95 % of control

SC(S)(Cc1ccccc1)Cc1ccccc1
inactive: dose: 100.0 mg/kg/injection, schedule: Q04DX002 (ip), vehicle: saline 100 % of control | dose: 200.0 mg/kg/injection, schedule: Q04DX002 (ip), vehicle: saline 100 % of control | dose: 400.0 mg/kg/injection, schedule: Q04DX002 (ip), vehicle: saline 94 % of control

O=C(c1ccc(C(=O)N(C2CCCCC2)C2CCCCC2)cc1)N(C1CCCCC1)C1CCCCC1
inactive: dose: 5.0 mg/kg/injection, schedule: Q01DX001 (ip), vehicle: saline 105 % of control | dose: 10.0 mg/kg/injection, schedule: Q01DX001 (ip), vehicle: saline 109 % of control | dose: 20.0 mg/kg/injection, schedule: Q01DX001 (ip), vehicle: saline 103 % of control | dose: 40.0 mg/kg/injection, schedule: Q01DX001 (ip), vehicle: saline 101 % of control | dose: 80.0 mg/kg/injection, schedule: Q01DX001 (ip), vehicle: saline 100 % of control

CNC(C(=O)OCc1ccccc1)C(C)C (stereo not drawn)
inactive: [10] 112 % of control | [11] 99 % of control | dose: 400.0 mg/kg/injection, schedule: Q04DX003 (ip), vehicle: saline 100 % of control

O=S(=O)(Cc1ccc(Br)cc1)Cc1ccc(Br)cc1
inactive: dose: 50.0 mg/kg/injection, schedule: Q01DX001 (ip), vehicle: saline 102 % of control | [1] 90 % of control | [2] 88 % of control | [3] 90 % of control

COC(=O)c1ccc(COc2ccc([N+](=O)[O-])cc2Cl)cc1
inactive: dose: 100.0 mg/kg/injection, schedule: Q01DX009 (ip), vehicle: saline sonified 94 % of control | [7] 96 % of control | dose: 200.0 mg/kg/injection, schedule: Q01DX009 (ip), vehicle: saline sonified 96 % of control | [8] 94 % of control | dose: 400.0 mg/kg/injection, schedule: Q01DX009 (ip), vehicle: saline sonified 94 % of control | [9] 96 % of control

COc1ccc2c(c1O)-c1cc(O)cc3c1C(C2)NCC3 (stereo not drawn)
inactive: dose: 0.63 mg/kg/injection, schedule: Q04DX003 (ip), vehicle: DMSO 105 % of control | dose: 1.25 mg/kg/injection, schedule: Q04DX003 (ip), vehicle: DMSO 96 % of control | dose: 2.5 mg/kg/injection, schedule: Q04DX003 (ip), vehicle: DMSO 93 % of control

O=C1C2C3CCC(CC3)C2C(O)C2C3CCC(C3)C12 (stereo not drawn)
inactive: [18] 93 % of control | [19] 96 % of control | [20] 93 % of control

CCOC(=O)c1cc(Cl)cc(C(=O)OCC)n1
inactive: [19] 111 % of control | [20] 107 % of control | [21] 102 % of control

O=C(NCc1ccncc1)C(c1ccccc1)c1ccccc1
inactive: [4] 96 % of control | [5] 92 % of control

COc1ccc(O)c(N=Nc2nccs2)c1
inactive: [18] 109 % of control | [19] 106 % of control | [20] 102 % of control

Cn1ncc(C(=O)O)c1N
inactive: dose: 25.0 mg/kg/injection, schedule: Q01DX009 (ip), vehicle: saline with Tween-80 102 % of control | [18] 111 % of control | [19] 100 % of control | [20] 94 % of control | [21] 96 % of control

COc1c(N)ccc(-c2ccc(N)c(OC)c2Cl)c1Cl
inactive: dose: 75.0 mg/kg/injection, schedule: Q04DX003 (ip), vehicle: saline with Tween-80 94 % of control
